In patent USRE48335E1, “Polymyxin derivatives as antimicrobial compounds” (priority 2014, dated 2020):
Values after ≈ are worked out from the molar mass of the structure shown. Positions of bridges follow the written chain, without caps; N, C: chain ends. Non-standard residues stand in square brackets, D forms with d. Residues, ends and D or L forms follow the SMILES beside them. *: point of attachment. Decanoyl = CCCCCCCCCC(=O)*; Nonanoyl = CCCCCCCCC(=O)*; Heptanoyl = CCCCCCC(=O)*; Dab = NCC[C@H](N)C(=O)O; Dap = NC[C@H](N)C(=O)O

Tests used:
Enterobacter cloacae = test system: Enterobacter cloacae
Description: (§1) MICs of the lipopeptides (trifluoroacetic acid salt, TFA) were determined by broth microdilution in cation-adjusted Mueller-Hinton broth (CAMHB) (Oxoid Australia, Thebarton, SA, Australia) according to Clinical and Laboratory Standards Institute standards (Clinical and Laboratory Standards Institute. Performance standards for antimicrobial susceptibility testing; eighteenth informational supplement M100-S18. Wayne, Pa., 2008). Polymyxin B (sulphate) was employed as control. […]

Acinetobacter baumannii = test system: Acinetobacter baumannii
Description: as §1

Pseudomonas aeruginosa = test system: Pseudomonas aeruginosa
Description: as §1

Row | Compound | Minimum inhibitory concentration, Ec FADDI-EC001 (Enterobacter cloacae) | Minimum inhibitory concentration, Ec FADDI-EC003 (Enterobacter cloacae) | Minimum inhibitory concentration, Ec FADDI-EC006 (Enterobacter cloacae) | Minimum inhibitory concentration, Ab A ATCC 17978 (Acinetobacter baumannii) | Minimum inhibitory concentration, Ab ATCC 19606 (Acinetobacter baumannii) | Minimum inhibitory concentration, Ab FADDI-AB034 (Acinetobacter baumannii) | Minimum inhibitory concentration, Pa ATCC 27853 (Pseudomonas aeruginosa) | Minimum inhibitory concentration, Pa FADDI-PA022 (Pseudomonas aeruginosa) | Minimum inhibitory concentration, Pa FADDI-PA025 (Pseudomonas aeruginosa)
1 | CCCCCCCCCC(=O)N[C@@H](CCN)C(=O)N[C@H](C(=O)N[C@@H](CN)C(=O)N[C@H]1CCNC(=O)[C@H]([C@@H](C)O)NC(=O)[C@H](CCN)NC(=O)[C@H](CCN)NC(=O)[C@H](C(C)C)NC(=O)[C@@H](CC(C)C)NC(=O)[C@H](CCN)NC1=O)[C@@H](C)O [Compound 39] (Decanoyl-[Dab]T[Dap][Dab][Dab][dL]V[Dab][Dab]T; lactam 4-C) | 0.5 µg/mL (≈ 0.433 µM) | 0.5 µg/mL (≈ 0.433 µM) | 0.5 µg/mL (≈ 0.433 µM) | 2 µg/mL (≈ 1.73 µM) | 0.5 µg/mL (≈ 0.433 µM) | 1 µg/mL (≈ 0.865 µM) | 1 µg/mL (≈ 0.865 µM) | 2 µg/mL (≈ 1.73 µM) | 2 µg/mL (≈ 1.73 µM)
2 | CCCCCCCCCC(=O)N[C@@H](CCN)C(=O)N[C@H](C(=O)N[C@@H](CCN)C(=O)N[C@H]1CCNC(=O)[C@H]([C@@H](C)O)NC(=O)[C@H](CCN)NC(=O)[C@H](CCN)NC(=O)[C@H](C)NC(=O)[C@@H](CC(C)C)NC(=O)[C@H](CCN)NC1=O)[C@@H](C)O [Compound 40] (Decanoyl-[Dab]T[Dab][Dab][Dab][dL]A[Dab][Dab]T; lactam 4-C) | 0.25 µg/mL (≈ 0.219 µM) | 0.25 µg/mL (≈ 0.219 µM) | 0.25 µg/mL (≈ 0.219 µM) | 0.5 µg/mL (≈ 0.438 µM) | 0.5 µg/mL (≈ 0.438 µM) | 0.5 µg/mL (≈ 0.438 µM) | 0.5 µg/mL (≈ 0.438 µM) | 2 µg/mL (≈ 1.75 µM) | 4 µg/mL (≈ 3.5 µM)
3 | CCCCCCCCCC(=O)N[C@@H](CCN)C(=O)N[C@H](C(=O)N[C@@H](CCN)C(=O)N[C@H]1CCNC(=O)[C@H]([C@@H](C)O)NC(=O)[C@H](CCN)NC(=O)[C@H](CCN)NC(=O)[C@H](C(C)C)NC(=O)[C@@H](CC(C)C)NC(=O)[C@H](CCN)NC1=O)[C@@H](C)O [Compound 41] (Decanoyl-[Dab]T[Dab][Dab][Dab][dL]V[Dab][Dab]T; lactam 4-C) | 1 µg/mL (≈ 0.855 µM) | 0.5 µg/mL (≈ 0.428 µM) | 0.5 µg/mL (≈ 0.428 µM) | 1 µg/mL (≈ 0.855 µM) | 1 µg/mL (≈ 0.855 µM) | 0.5 µg/mL (≈ 0.428 µM) | 1 µg/mL (≈ 0.855 µM) | 4 µg/mL (≈ 3.42 µM) | 2 µg/mL (≈ 1.71 µM)
4 | CCCCCCC(=O)N[C@@H](CCN)C(=O)N[C@H](C(=O)N[C@@H](CCN)C(=O)N[C@H]1CCNC(=O)[C@H]([C@@H](C)O)NC(=O)[C@H](CCN)NC(=O)[C@H](CCN)NC(=O)[C@H]([C@@H](C)O)NC(=O)[C@@H](CC(C)C)NC(=O)[C@H](CCN)NC1=O)[C@@H](C)O [Compound 42] (Heptanoyl-[Dab]T[Dab][Dab][Dab][dL]T[Dab][Dab]T; lactam 4-C) | <0.125 µg/mL | <0.125 µg/mL | 0.25 µg/mL (≈ 0.221 µM) | 4 µg/mL (≈ 3.54 µM) | 4 µg/mL (≈ 3.54 µM) | 2 µg/mL (≈ 1.77 µM) | 0.5 µg/mL (≈ 0.443 µM) | 2 µg/mL (≈ 1.77 µM) | >32 µg/mL
5 | CCCCCCCCC(=O)N[C@@H](CCN)C(=O)N[C@H](C(=O)N[C@@H](CCN)C(=O)N[C@H]1CCNC(=O)[C@H]([C@@H](C)O)NC(=O)[C@H](CCN)NC(=O)[C@H](CCN)NC(=O)[C@H]([C@@H](C)O)NC(=O)[C@@H](CC(C)C)NC(=O)[C@H](CCN)NC1=O)[C@@H](C)O [Compound 43] (Nonanoyl-[Dab]T[Dab][Dab][Dab][dL]T[Dab][Dab]T; lactam 4-C) | 0.25 µg/mL (≈ 0.216 µM) | <0.125 µg/mL | 0.5 µg/mL (≈ 0.432 µM) | 0.5 µg/mL (≈ 0.432 µM) | 0.5 µg/mL (≈ 0.432 µM) | 1 µg/mL (≈ 0.864 µM) | 0.5 µg/mL (≈ 0.432 µM) | 1 µg/mL (≈ 0.864 µM) | 16 µg/mL (≈ 13.8 µM)
6 | CCCCCCC(=O)N[C@@H](CCN)C(=O)N[C@H](C(=O)N[C@@H](CN)C(=O)N[C@H]1CCNC(=O)[C@H]([C@@H](C)O)NC(=O)[C@H](CCN)NC(=O)[C@H](CCN)NC(=O)[C@H]([C@@H](C)O)NC(=O)[C@@H](CC(C)C)NC(=O)[C@H](CCN)NC1=O)[C@@H](C)O [Compound 44] (Heptanoyl-[Dab]T[Dap][Dab][Dab][dL]T[Dab][Dab]T; lactam 4-C) | 0.25 µg/mL (≈ 0.224 µM) | <0.125 µg/mL | <0.125 µg/mL | 1 µg/mL (≈ 0.897 µM) | 1 µg/mL (≈ 0.897 µM) | 1 µg/mL (≈ 0.897 µM) | 0.5 µg/mL (≈ 0.448 µM) | 1 µg/mL (≈ 0.897 µM) | 16 µg/mL (≈ 14.3 µM)
